Measured values: patent US10301308B2, “Azetidine derivatives for tau imaging” (Eli Lilly and Company, priority 2015, dated 2019)

What was measured:
[1] = Clinical PET kinetic profile: brain uptake, washout, metabolism; assay type: in vivo, human
Description: (§1) Clinical evaluation of 3-(3-[18F]-Fluoroazetidin-1-yl)-8-methylbenzo[4,5]imidazo[1,2-a]pyridine (Compound 8) as a PET radioligand for imaging tau protein deposition in patients with AD or other neurodegenerative disorders is conducted in healthy volunteers. AD patients, or Chronic Traumatic Encephalopathy (CTE) subjects, by completion of one or more PET scans with Compound 8. Dynamic PET imaging is acquired on a Siemens ECAT EXACT HR+ over 150 minutes following Compound 8 or [18F]AV-1451 injection (0-60 and 90-150 minute imaging segments). Compound 8 or [18F]AV-1451 scans are acquired similarly in two imaging sessions. A brain MRI is also obtained. PET and MRI images are aligned and normalized, and ATLAS-based volumes of interest (VOI) are applied to the dynamic PET series. Compound 8 or [18F]AV-1451 are evaluated in terms of kinetic profile as well as target region to cerebellum standardized uptake value ratio (SUVr between 100-120 min) between healthy volunteers and AD or CTE subjects.

[2] = Preliminary stability of Compound 8 formulations (radiochemical purity by HPLC); assay type: physicochemical
Description: The HPLC fraction containing the purified 3-(3-[18F]-fluoroazetidin-1-yl)-8-methylbenzo[4,5]imidazo[1,2-a]pyridine is diluted with 0.5% (w/v) sodium ascorbate in WFI (40 mL). The diluted solution is then passed through a Sep-Pak® C18 Plus Light Cartridge (130 mg Sorbent per Cartridge, 55-105 μm Particle Size, Waters Part No. WAT023501; conditioned with ethanol (5 mL) then WFI (5 mL) prior to use) and the retained 3-(3-[18F]-fluoroazetidin-1-yl)-8-methylbenzo[4,5]imidazo[1,2-a]pyridine is washed with 0.5% (w/v) sodium ascorbate in water for injection solution (10 mL). 3-(3-[18F]-fluoroazetidin-1-yl)-8-methylbenzo[4,5]imidazo[1,2-a]pyridine is eluted off the C18 cartridge using dehydrated alcohol, USP (1 mL) into a flask containing 7 mL of 0.5% (w/v) sodium ascorbate in 0.9% sodium chloride for injection, USP. The C18 cartridge is then rinsed with an additional 2 mL of 0.5% (w/v) sodium ascorbate in 0.9% sodium chloride for injection, USP. The resulting solution (total 10 mL) is sterile filtered through a 0.22 μm Millex GV PVDF filter (Millipore SLGV013SL) into the bulk product vial (BPV: 30 mL Sterile Empty Vial from Allergy Laboratories with a 20 mm chlorobutyl stopper). A sample from the BPV is taken out for quality control (see FIG. 2 for representative chromatogram) by HPLC using the gradient method detailed in Table 1 below.
Preliminary stability of 3-(3-[18F]-fluoroazetidin-1-yl)-8-methylbenzo[4,5]imidazo[1,2-a]pyridine (Compound 8) formulations are evaluated. Samples from batches (size ranging from 235 mCi to 471 mCi) are taken and analyzed by HPLC for radiochemical purity over an 6 hour time period.

[3] = system: tau protein; test: Clinical PET imaging of tau protein in the brain (SUVr); assay type: in vivo, human
Description: as §1

[4] = batch 235 mCi, 23.5 mCi/mL, 10% EtOH, 0.45% Sodium Ascorbate in 0.9% Sodium Chloride
[5] = batch 295 mCi, 14.8 mCi/mL, 10% EtOH, 0.45% Sodium Ascorbate in 0.9% Sodium Chloride
[6] = batch 337 mCi, 33.7 mCi/mL, 10% EtOH, 0.45% Sodium Ascorbate in 0.9% Sodium Chloride
[7] = batch 471 mCi, 47.1 mCi/mL, 10% EtOH in 0.9% Sodium Chloride (no sodium ascorbate)

intact parent remaining ([1]; 60 min post injection, n=7): 5±3% | max SUV relative to that of [18F]AV-1451 ([1]; healthy volunteers and AD subjects): ~50 % higher | peak brain uptake ([1]; human subjects, dynamic PET): ~8 SUV | Stability Results (% RCP) T0 ([2]; batch 235 mCi, 23.5 mCi/mL, 10% EtOH (v/v), 0.45% (w/v) Sodium Ascorbate in 0.9% Sodium Chloride Injection, USP): 98 % RCP | Stability Results (% RCP) T0+2 h [2, 4]: 97 % RCP | Stability Results (% RCP) T0+4 h [2, 4]: 97 % RCP | Stability Results (% RCP) T0+6 h ([2]; batch 235 mCi, 23.5 mCi/mL, 10% EtOH, 0.45% Sodium Ascorbate in 0.9% Sodium Chloride, T0+6 h): 97 % RCP | Stability Results (% RCP) T0 [2, 5]: 97 % RCP | Stability Results (% RCP) T0+2 h [2, 5]: 96 % RCP | Stability Results (% RCP) T0+4 h [2, 5]: 96 % RCP | Stability Results (% RCP) T0+6 h ([2]; batch 295 mCi, 14.8 mCi/mL, 10% EtOH, 0.45% Sodium Ascorbate in 0.9% Sodium Chloride, T0+6 h): 96 % RCP | Stability Results (% RCP) T0 [2, 6]: 98 % RCP | Stability Results (% RCP) T0+2 h [2, 6]: 97 % RCP | Stability Results (% RCP) T0+4 h [2, 6]: 96 % RCP | Stability Results (% RCP) T0+6 h ([2]; batch 337 mCi, 33.7 mCi/mL, 10% EtOH, 0.45% Sodium Ascorbate in 0.9% Sodium Chloride, T0+6 h): 96 % RCP | Stability Results (% RCP) T0 ([2]; batch 471 mCi, 47.1 mCi/mL, 10% EtOH (v/v) in 0.9% Sodium Chloride Injection, USP (no sodium ascorbate)): 89 % RCP | Stability Results (% RCP) T0+2 h [2, 7]: 89 % RCP | Stability Results (% RCP) T0+4 h [2, 7]: 80 % RCP | Stability Results (% RCP) T0+6 h ([2]; batch 471 mCi, 47.1 mCi/mL, 10% EtOH in 0.9% Sodium Chloride (no sodium ascorbate), T0+6 h column, value taken at 5 h): 0 (5 h) % RCP | radiochemical purity retained ([2]; batches formulated with sodium ascorbate, up to 6 hours): 96-97%
SMILES: Cc1ccc2nc3cc(N4CC([18F])C4)ccn3c2c1 [Compound 8, 3-(3-[18F]-fluoroazetidin-1-yl)-8-methylbenzo[4,5]imidazo[1,2-a]pyridine]
stability of formulation over time ([2]; batch formulated without sodium ascorbate): deteriorates over time and degrades by 5 hours | SUVr values compared to [18F]AV-1451 ([3]; AD subjects): slightly higher SUVr values compared to [18F]AV-1451 | mean SUVr averaged over all regions ([3]; AD subjects): ~1.6 | uptake in cortical brain regions, AD subjects compared with healthy controls ([3]; AD subjects vs healthy controls): Higher uptake | SUVr in other cortical regions ([3]; CTE subject): ~1.0 | SUVr in focal sub-regions with high uptake ([3]; CTE subject, sub-regions of inferior lateral parietal, superior parietal and posterior temporal cortex): ~1.5 | mean SUVr averaged over all regions ([3]; healthy volunteer subjects): ~1.1 | SUVr in cortical regions ([3]; healthy volunteer subjects, target region to cerebellum): 1.0-1.1
